Converted amounts (≈) assume the structure as drawn.
Tests used:
[1] = tested on: Gram-positive species; experiment: MIC, Gram-positive panel compared to SPC; format: cell-based; settings: against all Gram-positive species
[2] = tested on: M. abscessus ATCC 19977; experiment: microbe, parasite or virus in culture; settings: Mycobacteroides abscessus, ATCC19977, 72 h, read-out: WT MIC
[3] = tested on: M. tuberculosis H37Rv
[4] = tested on: E. faecalis ATCC 29212; experiment: MIC broth microdilution, E. faecalis; format: cell-based; settings: Enterococcus faecalis, ATCC29212; E. faecalis ATCC 29212; read-out: Minimum Inhibitory Concentration
[5] = tested on: M. tuberculosis H37Rv; experiment: microbe, parasite or virus in culture; settings: Mycobacterium tuberculosis, 168 h, read-out: WT MIC
[6] = tested on: S. pneumoniae R6; experiment: MIC broth microdilution, S. pneumoniae; format: cell-based; settings: Streptococcus pneumoniae, read-out: Minimum Inhibitory Concentration
[7] = tested on: K. pneumoniae ATCC 700603; experiment: MIC broth microdilution, K. pneumoniae; format: cell-based, Klebsiella pneumoniae; settings: K. pneumoniae ATCC 700603
[8] = tested on: S. epidermidis ATCC 14990; experiment: MIC broth microdilution, S. epidermidis; format: cell-based; settings: Staphylococcus epidermidis, ATCC14990; S. epidermidis ATCC 14990; read-out: Minimum Inhibitory Concentration
[9] = tested on: S. pyogenes ATCC 700294; experiment: MIC broth microdilution, S. pyogenes; format: cell-based; settings: Streptococcus pyogenes, ATCC700294; S. pyogenes ATCC 700294; read-out: Minimum Inhibitory Concentration
[10] = target: T1, M. smegmatis ribosomes (strain SZ380) (Mycolicibacterium smegmatis, UniProt A0QSG6); experiment: Mycobacterial cell-free translation inhibition assay; format: biochemical, Mycobacterium smegmatis
T1 construct: S30 extracts were prepared by addition of dithiothreitol (DTT) to 1 mM and centrifugation; endogenous in cells; host or cells: M. smegmatis strain SZ380, S30 cell extract
T1 sequence (A0QSG6 whole entry): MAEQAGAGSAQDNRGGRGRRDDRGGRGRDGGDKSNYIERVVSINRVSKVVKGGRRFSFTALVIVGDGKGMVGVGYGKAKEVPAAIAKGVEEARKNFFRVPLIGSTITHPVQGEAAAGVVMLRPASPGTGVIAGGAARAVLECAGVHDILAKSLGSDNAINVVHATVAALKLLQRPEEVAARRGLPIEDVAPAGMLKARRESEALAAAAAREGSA
Description: Mycobacterial cell-free translation inhibition assays were performed as described previously. In brief, M. smegmatis strain SZ380 bacterial cells were disrupted and emulsified with a microfluidizer processor (Microfluidics, Westwood, MA, USA) at 25,000 lb/in^2. S30 extracts were prepared by addition of dithiothreitol (DTT) to 1 mM and centrifugation at 30,000 × g at 4 °C. Translation reaction mixtures containing either test article or DMSO vehicle control and 4 μl of the S30 extract, 0.2 mM amino acid mix, 6 μg tRNA (Sigma), 0.4 μg hFluc mRNA, 0.3 μl protease inhibitor (complete, EDTA-free, Roche), 12 U RNAse inhibitor (Ribolock, Thermo Scientific), 6 μl S30 premix without amino acids (Promega), plus water to a final reaction volume of 15 μl were incubated for 1 h at 37 °C. The reaction was stopped on ice before adding 75 μl of luciferase assay reagent (Promega) and recording of luminescence. Regression analysis and IC50 calculations were performed using GraphPad Prism version 9.3.1 by using the equation [log(inhibitor) vs. response–Variable slope (four parameters)] with the fitting method: least squares (ordinary) fit. Y = Bottom + (Top-Bottom)/(1 + 10^((X-LogIC50))).

[11] = tested on: E. coli K12 ∆tolC; experiment: microbe, parasite or virus in culture; format: cell-based; settings: Escherichia coli, read-out: Minimum Inhibitory Concentration
[12] = tested on: M. tuberculosis H37Rv ∆1258c; experiment: microbe, parasite or virus in culture; format: cell-based; settings: Mycobacterium tuberculosis, 168 h
[13] = tested on: P. aeruginosa ATCC 15692; experiment: MIC broth microdilution, P. aeruginosa; format: cell-based, Pseudomonas aeruginosa; settings: P. aeruginosa ATCC 15692
[14] = tested on: A. baumannii ATCC 19606; experiment: MIC broth microdilution, A. baumannii; format: cell-based, Acinetobacter baumannii; settings: A. baumannii ATCC 19606
[15] = tested on: E. coli K12; experiment: microbe, parasite or virus in culture; settings: Escherichia coli, K12, read-out: Minimum Inhibitory Concentration
[16] = tested on: S. aureus USA300; experiment: MIC broth microdilution, S. aureus; format: cell-based; settings: Staphylococcus aureus; S. aureus USA300; read-out: Minimum Inhibitory Concentration
[17] = tested on: M. abscessus ATCC 19977 ∆2780c; experiment: microbe, parasite or virus in culture; format: cell-based, Mycobacterium abscessus; settings: Mycobacteroides abscessus, ATCC19977, 72 h, read-out: ∆2780c MIC
[18] = tested on: E. coli K12
[19] = tested on: M. abscessus ATCC 19977
[20] = tested on: E. faecium ATCC 19434; experiment: MIC broth microdilution, E. faecium; format: cell-based; settings: Enterococcus faecium, ATCC19434; E. faecium ATCC 19434; read-out: Minimum Inhibitory Concentration
[21] = tested on: M. smegmatis strain MC^2 155; experiment: MIC broth microdilution, M. smegmatis; format: cell-based, Mycobacterium smegmatis; settings: Mycolicibacterium smegmatis, MC^2155, 72 h; M. smegmatis strain MC^2 155; 3 days; read-out: WT MIC

CCCC[C@@H]1CC(=O)[C@]2(O)O[C@@H]3[C@@H](NC)[C@@H](O)[C@@H](NC)[C@H](O)[C@H]3O[C@@H]2O1 [TroSPC (2), trospectomycin, reference compound]
increase in activity compared to SPC [1]: > 4 fold
MIC [2]: 64 mg/L (≈ 171 µM)
Efflux Ratio [3]: 16
MIC [4]: 64 mg/L (≈ 171 µM)
MIC [5]: 32 mg/L (≈ 85.5 µM)
MIC [6]: 4 mg/L (≈ 10.7 µM)
Minimum Inhibitory Concentration [7]: >64 µg/mL
MIC ([7]; Klebsiella pneumoniae, ATCC700603, read-out: Minimum Inhibitory Concentration): > 64 mg/L
MIC [8]: 32 mg/L (≈ 85.5 µM)
MIC [9]: 4 to 8 mg/L (≈ 10.7 to 21.4 µM)
IC50 [10]: 0.51 µM
MIC [11]: 16 mg/L (≈ 42.7 µM)
MIC [12]: 2 mg/L (≈ 5.34 µM)
Minimum Inhibitory Concentration [13]: >64 µg/mL
MIC ([13]; Pseudomonas aeruginosa, ATCC15692, read-out: Minimum Inhibitory Concentration): > 64 mg/L
Minimum Inhibitory Concentration [14]: >64 µg/mL
MIC ([14]; Acinetobacter baumannii, ATCC19606, read-out: Minimum Inhibitory Concentration): > 64 mg/L
MIC [15]: > 64 mg/L
MIC [16]: 64 mg/L (≈ 171 µM)
MIC [17]: 16 mg/L (≈ 42.7 µM)
E. coli Efflux Ratio [18]: >4
Efflux Ratio [19]: 4
MIC [20]: 64 mg/L (≈ 171 µM)
MIC [21]: 32 mg/L (≈ 85.5 µM)

— PMC11347369, “Synthesis and antibacterial action of 3’,6’-disubstituted spectinomycins” (The Journal of Antibiotics, 2024)
